Source: patent publication US6602910B2, “D-enantiomer of DFMO and methods of use therefor” (priority 2000, dated 2003)
Like-named read-outs stand apart in the source and are kept apart here.

Assays:
[1] = rats, 200 mg/kg/day to 1.2 g/kg/day by intubation, up to eight weeks
Description: Twenty-four Long Evans pigmented rats (250-275 g) were acquired from Harlan Sprague Dawley (Indianapolis, Ind.) and thirty-six pigmented guinea pigs obtained from Kuiper Rabbit Ranch (Gary, Ind.) at an initial weight of 200-250 g and housed in University of Oklahoma Health Sciences Center animal facility. Subjects were housed under a 12:12 hr light dark cycle with free access to food and water with a room temperature controlled at 21° C.
Twenty-four animals were randomly placed into 8 groups of three subjects each. […] Four additional animals were randomly placed into 2 subsequent groups: 400 and 600 mg/kg/day by gavage twice a day (5 days/week) for 8 weeks. […] Weight measurements were taken daily (5 days/week) with assessment of auditory function performed at the conclusion of dosing.

[2] = test system: pigmented guinea pigs
Description: Auditory thresholds were assessed in the 0.5 g/kg and 1 g/kg/day subjects at day 45 of dosing while the 2 g/kg/day subjects were evaluated at 22 days of dosing. […] Daily weight measurements determined the injection volume. Assessment of auditory function occurred at the conclusion of dosing.
Injections, determined by daily weight measurements, were made ip daily for 45 days.
Continuous tones were used for eliciting CM. Tone bursts were used to elicit the CAP.

[3] = test system: pigmented guinea pigs; assay: General toxicity in guinea pigs (mortality, weight gain), daily ip injection; type: in vivo, guinea pig
Source text: Daily weight measurements determined the injection volume.

[4] = test system: MCF-7 human breast tumor; assay: MCF-7 human breast cancer xenograft model; type: in vivo, Nude mice; conditions: 0.5% w/v in drinking water; for animals with partial tumor shrinkage: Day 90, eight animals per group; for mean partial tumor shrinkage: Day 90, in the animals with shrinkage; for tumor growth inhibition: Day 90, in the animals without shrinkage
Description: FIG. 11 Mean Tumor weight of MCF-7 human breast tumors in nude […].
Nude mice were implanted with the estrogen-dependent human breast tumor line, MCF-7 (ATCC #HTB22). […] The experiment was terminated on Day 90 (when control tumors had reached a size of 400 mg.). Mice were weighed twice weekly, and tumor measurements were taken by calipers twice weekly, starting at time of DFMO administration (Day 1). Tumor measurements were converted to mg tumor weight by the formula, L^2×W/2.

[5] = test system: tumor putrescine levels; conditions: rat-tumor model, infusion; cited from earlier work
[6] = Plasma levels in rats after single oral dose
[7] = test system: hair cells of the basilar membrane; assay: Histology of Organ of Corti surface preparations (SDH staining, hair cell damage); conditions: one guinea pig, 1 g/kg/day for 45 days; most apical 40% normal
Description: Surface preparations of the Organ of Corti were evaluated in a limited number of subjects. The animals were decapitated while deeply anesthetized after CAP and CM recording. Cochleae were removed immediately. Both the round and oval windows were opened and the apex of the cochlea was drilled open to facilitate perfusion. The cochleae were perfused with SDH (succinate dehydrogenase) incubative solution (0.05 M sodium succinate, 0.05 M phosphate buffer and 0.05% TetraNitro Blue Tetrazolium) and immersed in the solution for one h (37° C.). Then the cochleae were fixed with 10% formalin for at least 2 days. After fixation, the cochleae were decalcified in 10% EDTA solution (EthyleneDiamine Tetraacetic Acid) for 3 days or longer as needed. Cochlea microdissection was accomplished under a light microscope.
Locations along the surface of the basilar membrane were identified by percent distance from apex, and can be related to the physiological data because sound is encoded in a tonotopic fashion with the highest frequencies represented in the most basal portion of the cochlea.

[8] = rat, in vivo, po, 200 mg/kg
[9] = test system: MCF-7, LNCaP, PC-3, HT-29 cancer cell lines; assay: Induction of apoptosis in cell lines (DNA fragmentation ELISA, Hoechst staining); type: cell-based, human; conditions: DFMO forms at 1 and 10 uM
Description: Each of the three forms of DFMO were tested at two concentrations (1 and 10 uM). Adriamycin and calcium chloride were used as positive controls. Apoptosis was assayed using a multi-well plate DNA fragmentation assay according to the Cellular DNA Fragmentation ELISA kit (Boehringer Mannheim Biochemicals, Cat. #1585-045) and Hoechst staining.

For `NCCCC(N)(C(=O)O)C(F)F` (racemic) [D,L-DFMO, 2-(Difluoromethyl)-DL-ornithine], the weight change [1] was “does not produce any significant weight change”, the “average loss of auditory sensitivity (CAP), 20 to 40 kHz” value (“average loss of auditory sensitivity” below) ([2]; 500 mg/kg/day ip, day 45) was 7.1 dB and the “CAP threshold elevation, average” value ([2]; 500 mg/kg/day ip, day 45, all frequencies) was 9 dB. The “effect on CM sensitivity” value ([2]; 500 mg/kg/day to 2 g/kg/day ip) was “not effected”, the “average loss of auditory sensitivity” value ([2]; 1 g/kg/day ip, day 45) was 17 dB and the “CAP threshold average loss across all frequencies” value ([2]; 2 g/kg/day ip, 22 days) was 14 dB. For the same compound, the “average loss of auditory sensitivity” value ([2]; 2 g/kg/day ip, 22 days) was 30 dB, the “systemic toxicity (growth rate)” value ([3]; 500 mg/kg/day ip, 45 days) was “no apparent signs of systemic toxicity” and the weight gain ([3]; 1 g/kg/day ip, 45 days) was “appear to diverge from the controls during the last 10 days”. For the same compound, the “subjects that did not survive” value ([3]; 1 g/kg/day ip, full 6 week dosing regimen) was “two of the five”, the weight gain ([3]; 2 g/kg/day ip, to day 22) was “effectively blocked” and the animals dying ([3]; 3 g/kg/day ip, within the first six days) was 100%. The “animals with partial tumor shrinkage” value [4] was “seven of eight”, the “mean partial tumor shrinkage” value [4] was 60.4% and the tumor growth inhibition [4] was 99.2%. The “decrease in tumor putrescine levels” value [5] was 90%, the maximum plasma level ([6]; 400 mg/kg orally) was 109 µg/mL and the “portion of basilar membrane showing hair cell damage” value [7] was 60%.

With `NCCC[C@@](N)(C(=O)O)C(F)F` [D-DFMO, D enantiomer of difluoromethylornithine] the plasma level [8] was 102 µg/mL, the “animals with partial tumor shrinkage” value [4] was “four of eight” and the “mean partial tumor shrinkage” value [4] was 62.6%. The tumor growth inhibition [4] was 84.7% and the toxic death ([4]; eight animals per group) was “two animals experienced toxic death”.

For `COc1cccc2c1C(=O)c1c(O)c3c(c(O)c1C2=O)C[C@@](O)(C(=O)CO)C[C@@H]3O[C@H]1C[C@H](N)[C@H](O)[C@H](C)O1` [adriamycin], the apoptosis and cytotoxicity [9] was “cytotoxic as well as apoptotic”.

In the case of (−)-4-difluoromethyl-ornithine [L-DFMO], the “animals with partial tumor shrinkage” value [4] is reported as “seven of eight”, the “mean partial tumor shrinkage” value [4] is reported as 50.0% and the tumor growth inhibition [4] is reported as 5.5%. It also gave a plasma level ([6]; 200 mg/kg orally, one to two hours) of 45 µg/mL.
